Values of other authors in patent US9340506B2, “Acetamide derivatives as glucokinase activators, their process and medicinal applications” (ADVINUS THERAPEUTICS LIMITED, priority 2007, dated 2016).

Conditions: animal efficacy models; PSN-GK1 at higher dose; cited from earlier work

Substance: Ro-28-1675
- Hypoglycemia in animal studies: cause hypoglycemia
